Measured values: patent publication US9944618B2, “Inhibiting neurotransmitter reuptake” (Mayo Foundation for Medical Education and Research, priority 2013, dated 2018)

Each molecule was assayed against human norepinephrine transporter (Homo sapiens (Human), UniProt P23975) (assay: Human NET (norepinephrine transporter) uptake assay). Details: comparison in words, used to assign configuration.
Format: cell-based
Description: This protocol was designed to measure inhibition of uptake by the human norepinephrine transporter. […] The Assay Buffer (AB) was 1×HBSS and 0.02 M HEPES.
The HEK293F cells were transfected with the human norepinephrine transporter and frozen in 1 mL aliquots at about 1E+07 cells/mL. On the day of the experiment, the cells were removed from −80° C. or liquid nitrogen and thawed in a room temperature water bath. The cells were dilute to about 1-2E+06 with Freestyle medium. A 1 mL sample (1:2 dilution) was prepared, and the cells were counted. The cells were spun at 1100 rpm for 5 minutes, and the medium was aspirated off. The cells were resuspend in medium at 1.5E+06 cells/mL for about 60,000 cells per well. 40 μL of cells were dispensed per well in the Biocoat plates. The plates were spun at 1100 rpm for 1 minute to improve homogeneity of the cell layer and were incubated at 37° C. for a minimum of 3 hours.
12 μL of test compound (10 mM) in DMSO was added to the wells, and nomifensine was used as a control. […] The neurotransmitter transporter dye was prepared in AB prior to use.
Due to the proprietary nature of the dye formulation, all dye concentrations were expressed as a percentage of the vendor-recommended dye reconstitution. Thus, the above calculations were valid when both [dye] and Km were expressed in the same units (%). Compounds were tested in triplicate (n=3).

human norepinephrine transporter, sequence (P23975 whole entry): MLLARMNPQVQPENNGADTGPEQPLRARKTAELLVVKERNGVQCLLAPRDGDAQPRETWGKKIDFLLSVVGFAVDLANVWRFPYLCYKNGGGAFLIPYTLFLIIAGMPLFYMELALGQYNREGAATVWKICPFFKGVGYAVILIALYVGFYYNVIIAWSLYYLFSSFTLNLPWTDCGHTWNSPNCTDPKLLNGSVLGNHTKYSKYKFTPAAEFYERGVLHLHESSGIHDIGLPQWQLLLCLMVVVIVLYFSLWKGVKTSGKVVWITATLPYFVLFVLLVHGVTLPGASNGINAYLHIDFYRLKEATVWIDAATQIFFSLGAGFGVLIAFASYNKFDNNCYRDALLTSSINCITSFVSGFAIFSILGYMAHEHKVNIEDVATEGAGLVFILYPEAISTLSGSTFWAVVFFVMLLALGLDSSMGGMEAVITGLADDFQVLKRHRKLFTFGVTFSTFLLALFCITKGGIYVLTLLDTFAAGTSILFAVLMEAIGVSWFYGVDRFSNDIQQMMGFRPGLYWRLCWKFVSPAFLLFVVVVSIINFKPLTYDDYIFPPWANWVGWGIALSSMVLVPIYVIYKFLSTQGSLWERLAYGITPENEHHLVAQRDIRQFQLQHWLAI

Row | SMILES | potency at hNET relative to the other enantiomer or epimer
1 | CNC[C@H](c1ccc2ccccc2c1)[C@H](O)c1cc(F)cc(F)c1 (single isomer, unassigned) [compound 37] | more potent
2 | CNCC(Cc1ccccc1CO)c1ccc2ccccc2c1 (stereo not shown) [compound 2] | more potent
3 | CNC[C@H](c1ccc(Cl)c(Cl)c1)[C@H](O)c1ccccc1 [compound 10] | more potent
4 | CNC[C@H](c1ccc2ccccc2c1)[C@H](O)c1ccccc1F [compound 15] | more potent
5 | CNCC(c1ccc(Br)c(Cl)c1)[C@H](O)c1ccccc1 (stereo partly shown) [compound 16] | more potent
6 | CNC[C@H](c1ccc(Br)c(Cl)c1)[C@@H](O)c1ccccc1 [compound 21] | more potent
7 | CNC[C@H](c1ccc2ccccc2c1)[C@H](O)c1ccc(Cl)nc1 [compound 26] | higher inhibitory activity
8 | CNCC(CCc1ccccc1)[C@@H](O)c1ccccc1 (stereo partly shown) [compound 27] | more potent
9 | CNC[C@H](c1ccc2ccccc2c1)[C@H](O)c1ccccc1C [compound 28] | more potent
10 | CNCC(Cc1ccccc1C)c1ccc2ccccc2c1 (stereo not shown) [compound 39] | more potent
11 | CNC[C@@H](c1ccc2ccccc2c1)[C@@H](O)c1cccnc1 [compound 49] | more potent
12 | CNCC(Cc1ccccc1O)c1ccc2ccccc2c1 (stereo not shown) [compound 52] | more potent
13 | CNCC(Cc1ccccc1OC)c1ccc2ccccc2c1 (stereo not shown) [compound 57] | more potent

Results, then the molecule that gave them:

Row | potency at hNET relative to the other enantiomer or epimer | SMILES
14 | equipotent | CNC[C@@H](c1ccc(Cl)c(Cl)c1)[C@@H](O)c1cccc([S+](C)[O-])c1 (single isomer, unassigned) [compound 116]
15 | equipotent | O[C@@H](c1ccccc1)[C@@H](CNCC(F)(F)F)c1ccc2ccccc2c1 (single isomer, unassigned) [compound 130]
16 | similar | CNC[C@H](c1ccc(Cl)c(Cl)c1)[C@H](O)c1cccc(N(C)C)c1 (single isomer, unassigned) [compound 168]
17 | more potent | C[C@](CN)(Cc1cccnc1)c1ccc2ccccc2c1 [compound 42]
18 | higher potency | CNC[C@@H](Cc1ccc(C)s1)c1ccc2ccccc2c1 [compound 44]
19 | more potent | CNCC(Cc1cccnc1)c1ccc2ccccc2c1 (stereo not shown) [compound 48]
20 | more potent | CNC[C@H](c1ccc(OC)c(C)c1)[C@H](O)c1cccnc1 [compound 55]
21 | more potent | CNC[C@H](c1ccc2ccccc2c1)[C@@H](O)c1ccccc1F [compound 60]
22 | more potent | CNC[C@H](c1ccc(Cl)c(Cl)c1)[C@@H](O)c1ccccc1[N+](=O)[O-] [compound 65]
23 | less potent | CNCC(CCc1ccccc1)[C@H](O)c1ccccc1 (stereo partly shown) [compound 66]
24 | more potent | CNC[C@H](c1ccc(Cl)c(Cl)c1)[C@@H](O)c1ccccc1 [compound 70]
25 | more potent | CNC[C@H](c1ccc(Cl)c(Cl)c1)[C@H](O)c1cccc(Br)c1 [compound 76]
26 | less potent | CNC[C@@H](c1ccc2ccccc2c1)[C@@H](O)c1ccccc1F [compound 78]
27 | more potent | CNCC(C[C@H](O)c1ccccc1)c1ccc2ccccc2c1 (stereo partly shown) [compound 85]
28 | less potent | CNCC(Cc1ccccc1CO)c1ccc2ccccc2c1 (stereo not shown) [compound 90]
